Assay results taken from patent publication US20090042878A1, “THIENOPYRIMIDYLAMINES AS MODULATORS OF THE EP2 RECEPTOR” (priority 2007, published 2009).

Key:
cumulus-oocyte complexes = experiment: cumulus expansion assay in vitro; format: cell-based, mice; conditions: competing with natural EP2 receptor agonist PGE2
Protocol: Folliculogenesis is induced in immature female mice at an age of 14-18 days by a single dose (intraperitoneal) of 10 I.U. of PMSG (Pregnant Mare Serum Gonadotropin; Sigma G-4877, Lot 68H0909). 47-50 hours after the injection, the ovaries are removed and the cumulus-oocyte complexes are removed. The cumulus complex is not yet expanded at this stage.
The cumulus-oocyte complexes are then incubated with prostaglandin E2 (PGE2) (1 μM), vehicle control (ethanol) or test substances for 20-24 hours. Medium: alpha-MEM medium with 0.1 mM IBMX, pyruvates (0.23 mM) glutamines (2 mM), pen/strep 100 IU/ml pen. and 100 μg/ml strep. and HSA (8 mg/ml). Cumulus expansion is then established through the division into four stages (according to Vanderhyden et al. Dev Biol. 1990 August; 140(2):307-317).

[1] = target: T1, human prostaglandin E2 (subtype EP2) receptor (Homo sapiens, UniProt P43116); experiment: cAMP antagonism test (HTRF cAMP detection, PGE2 stimulation); format: cell-based; conditions: in presence of PGE2
T1 construct: host or cells: cells in a cell culture plate
T1 sequence (P43116 whole entry): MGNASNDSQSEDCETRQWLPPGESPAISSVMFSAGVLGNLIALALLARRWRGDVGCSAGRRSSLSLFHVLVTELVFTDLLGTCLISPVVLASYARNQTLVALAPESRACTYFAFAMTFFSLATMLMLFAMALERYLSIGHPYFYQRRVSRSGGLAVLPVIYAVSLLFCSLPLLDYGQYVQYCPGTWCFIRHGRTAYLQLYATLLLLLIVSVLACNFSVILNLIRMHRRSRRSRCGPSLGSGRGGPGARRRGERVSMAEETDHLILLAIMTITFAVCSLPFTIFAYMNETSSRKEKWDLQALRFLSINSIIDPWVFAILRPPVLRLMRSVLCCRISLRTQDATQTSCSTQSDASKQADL
Protocol: (§1) The binding of PGE2 to the EP2 subtype of the human PGE2 receptor induces activation of membrane-associated adenylate cyclases and leads to the formation of cAMP. In the presence of the phosphodiesterase inhibitor IBMX, cAMP which has accumulated due to this stimulation and been released by cell lysis is employed in a competitive detection method. In this assay, the cAMP in the lysate competes with cAMP-XL665 for binding of an Eu cryptate-labelled anti-cAMP antibody.
(§2) The two signals are measured in a suitable measuring instrument with a time lag, i.e. after the background fluorescence has declined.
(§3) The substance solutions (0.75 μl) introduced into an assay plate and 30% DMSO are dissolved in 16 μl of a KRSB+IBMX stimulation solution (1× Krebs-Ringer Bicarbonate Buffer; Sigma-Aldrich #K-4002; including 750 μM 3-isobutyl-1-methylxanthine Sigma-Aldrich #I-7018), and then 15 μl thereof are transferred into a media-free cell culture plate which has been washed with KRSB shortly beforehand.
After preincubation at room temperature (RT) for 30 minutes, 5 μl of a 4×PGE2 solution (11 nM) are added, and incubation is carried out in the presence of the agonist at RT for a further 60 min (volume: ˜20 μl) before the reaction is then stopped by adding 5 μl of lysis buffer and incubated at RT for a further 20 min (volume: ˜25 μl). The cell lysate is then transferred into a measuring plate and measured in accordance with the manufacturer's information (cyclic AMP kit Cisbio International #62AMPPEC).

[2] = target: T1, human prostaglandin E2 (subtype EP2) receptor; experiment: cellular agonism test (cAMP); format: cell-based
Protocol: as §1, §2, §3
After incubation at room temperature (RT; volume: ˜15 μl) for 60 minutes, the reaction is then stopped by adding 5 μl of lysis buffer and incubated at RT for a further 20 min (volume: ˜20 μl). The cell lysate is then transferred into a measuring plate and measured in accordance with the manufacturer's instructions (cyclic AMP kit Cisbio International #62AMPPEC).

IC50 [1] [µM]	SMILES	other results
0.31	COc1ccc(CNc2ncnc3cc(-c4cccc(NC(C)=O)c4)sc23)cc1 [Example 90, N-{3-[4-(4-Methoxybenzylamino)thieno[3,2-d]pyrimidin-6-yl]phenyl}acetamide]	–
0.61	c1cnc2ccc(-c3cc4ncnc(NCc5ccc6c(c5)OCO6)c4s3)cc2c1 [Example 57, Benzo[1,3]dioxol-5-ylmethyl-(6-quinolin-6-yl-thieno[3,2-d]pyrimidin-4-yl)amine]	–
0.46	CC(=O)Nc1cccc(-c2cc3ncnc(NCc4ccc5c(c4)OCO5)c3s2)c1 [Example 69, N-(3-{4-[(Benzo[1,3]dioxol-5-ylmethyl)amino]thieno[3,2-d]pyrimidin-6-yl}phenyl)acetamide]	effect in the cellular agonism test [2]: no inhibition

Further lines, the molecule ahead of its results:

SMILES	IC50 [1] [µM]	other results
Oc1ccc(CCNc2ncnc3cc(-c4ccccc4)sc23)cc1 [Example 9, 4-[2-(6-Phenylthieno[3,2-d]pyrimidin-4-ylamino)ethyl]phenol]	–	suppression of cumulus expansion (cumulus-oocyte complexes; 10 μM): 45%
CC(C)Oc1ccc2c(=O)c3cc(C(=O)O)ccc3oc2c1 [AH 6809, reference compound]	–	suppression of cumulus expansion (cumulus-oocyte complexes): approx. 30%
